{"source": "patent US11771669B2", "about": "“Topical composition and delivery system and its use” (SBG MEDICAL TECHNOLOGIES, INC., priority 2012, dated 2023)", "key": {"[1]": {"test_system": "rat cornea", "conditions": "topical application onto the rat cornea, cited from earlier work"}, "[2]": {"test_system": "acute pain", "conditions": "34 subjects", "method": "As indicated, 10 mL of venous blood was collected throughout the study period, at time intervals likely to capture peak and trough levels (Greenblatt D J et al. (1985). Arch Otolaryngol 111: 2988-3000); (Baumann L S, et al. (2010). J Drugs Dermatol 9: 1500-1504). Each subject provided self-rated pain evaluations at those same time intervals, focusing on pain at the identified site of acute pain and of drug application, using the 1-10 Visual Analog Scale (VAS) (Meier T, et al. (2003). Pain 106: 151-158).\nThe central data used to describe efficacy was the 10-point VAS. While this measure is subjective, the study subjects were requested specifically to be consistent in their pain estimates."}, "[3]": {"conditions": "animal models, topical; cited from earlier work"}}, "data": [{"molecule": "O=C(O)CN(CCN(CC(=O)O)CC(=O)O)CC(=O)O", "note": "[EDTA, ethylenediaminetetraacetic acid]", "values": [{"measurement": "Ocular uptake of C14 EDTA, applied with MSM", "setting": "[1]; with MSM", "value": "uptake of the C^14 EDTA in all tested ocular tissues"}, {"measurement": "Ocular penetration of EDTA, without MSM", "setting": "[1]; without MSM", "value": "did not penetrate the eye"}]}, {"molecule": "CCN(CC)CC(=O)Nc1c(C)cccc1C", "note": "[lidocaine, 2-(diethylamino)-N-(2,6-dimethylphenyl)acetamide]", "values": [{"measurement": "Number of subjects with maximum pain relief at the 1 hour point", "setting": "[2]; doses at 0 and 4 h", "value": 9, "unit": "subjects"}, {"measurement": "Subjects whose time elapsed to reach maximal pain reduction was 1 h", "setting": "[2]; doses at 0 and 4 h", "value": 27, "unit": "%"}, {"measurement": "Subjects whose time elapsed to reach maximal pain reduction was 3 h", "setting": "[2]; doses at 0 and 4 h", "value": 21, "unit": "%"}, {"measurement": "Subjects whose time elapsed to reach maximal pain reduction was 5 h", "setting": "[2]; doses at 0 and 4 h", "value": 18, "unit": "%"}, {"measurement": "Subjects whose time elapsed to reach maximal pain reduction was 7 h", "setting": "[2]; doses at 0 and 4 h", "value": 9, "unit": "%"}, {"measurement": "Subjects whose time elapsed to reach maximal pain reduction was 9 h", "setting": "[2]; doses at 0 and 4 h", "value": 12, "unit": "%"}, {"measurement": "Subjects whose time elapsed to reach maximal pain reduction was 11 h", "setting": "[2]; doses at 0 and 4 h", "value": 6, "unit": "%"}, {"measurement": "Number of subjects with pain relief at 50% or better", "setting": "[2]; maximal pain reduction", "value": "28 of 34"}, {"measurement": "Subjects with pain reduction of 50% or greater", "setting": "[2]; maximal pain reduction", "value": 82, "unit": "%"}]}, {"molecule": "methylsulfonylmethane [MSM]", "values": [{"measurement": "Toxicity when administered topically (in words)", "setting": "[3]", "value": "very low toxicity"}]}]}
